# Test system: 282377-053-R-J1-PDC complex spheroid viability
# Experiment: Anticancer human tumor 282377-053-R-J1-PDC patient-derived colon adenocarcinoma cell line growth inhibition [POLQ]
# Conditions: for IC50: curve of first compound; for viability, T/C: stronger effect = lower value
# How it was run: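 Growth inhibition in 3D: complex spheroids (tumor PDC, HUVEC, MSC) treated with POLQ inhibitor combinations; where Cmax unknown, highest tested concentration 10 microM, except SN-38 at 1 microM.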
# [1] = second compound 0.0316 µM, first compound 0.00316 µM
# [2] = second compound 0.0316 µM, first compound 0.01 µM
# [3] = second compound 0.0316 µM, first compound 0.0316 µM
# [4] = second compound 0.0316 µM, first compound 0.1 µM
# [5] = second compound 0.0316 µM, first compound 0.316 µM
# [6] = second compound 0.0316 µM, first compound 1 µM
# [7] = second compound 0.1 µM, first compound 0.00316 µM
# [8] = second compound 0.1 µM, first compound 0.01 µM
# [9] = second compound 0.1 µM, first compound 0.0316 µM
# [10] = second compound 0.1 µM, first compound 0.1 µM
# [11] = second compound 0.1 µM, first compound 0.316 µM
# [12] = second compound 0.1 µM, first compound 1 µM
# [13] = second compound 0.316 µM, first compound 0.00316 µM
# [14] = second compound 0.316 µM, first compound 0.01 µM
# [15] = second compound 0.316 µM, first compound 0.0316 µM
# [16] = second compound 0.316 µM, first compound 0.1 µM
# [17] = second compound 0.316 µM, first compound 0.316 µM
# [18] = second compound 0.316 µM, first compound 1 µM
# [19] = second compound 1 µM, first compound 0.00316 µM
# [20] = second compound 1 µM, first compound 0.01 µM
# [21] = second compound 1 µM, first compound 0.0316 µM
# [22] = second compound 1 µM, first compound 0.1 µM
# [23] = second compound 1 µM, first compound 0.316 µM
# [24] = second compound 1 µM, first compound 1 µM
# [25] = second compound 3.16 µM, first compound 0.00316 µM
# [26] = second compound 3.16 µM, first compound 0.01 µM
# [27] = second compound 3.16 µM, first compound 0.0316 µM
# [28] = second compound 3.16 µM, first compound 0.1 µM
# [29] = second compound 3.16 µM, first compound 0.316 µM
# [30] = second compound 3.16 µM, first compound 1 µM
# [31] = second compound 10 µM, first compound 0.00316 µM
# [32] = second compound 10 µM, first compound 0.01 µM
# [33] = second compound 10 µM, first compound 0.0316 µM
# [34] = second compound 10 µM, first compound 0.1 µM
# [35] = second compound 10 µM, first compound 0.316 µM
# [36] = second compound 10 µM, first compound 1 µM
# 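Further: spheroids exposed to compounds for seven days.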
# 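Wherever viability, T/C is given: 100% = DMSO vehicle control viability.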
compound,measurement,setting,value
C=CCn1c(=O)c2cnc(Nc3ccc(N4CCN(C)CC4)cc3)nc2n1-c1cccc(C(C)(C)O)n1 + COC1C(OC(N)=O)C(O)C(Oc2ccc3c(O)c(NC(=O)c4ccc(O)c(CC=C(C)C)c4)c(=O)oc3c2C)OC1(C)C,IC50,second compound 0.0316 µM,> 1000 nM
same,IC50,second compound 0.1 µM,> 1000 nM
same,IC50,second compound 0.316 µM,> 1000 nM
same,IC50,second compound 1 µM,> 1000 nM
same,IC50,second compound 3.16 µM,> 1000 nM
same,IC50,second compound 10 µM,> 1000 nM
same,"viability, T/C",[1],85.2%
same,"viability, T/C",[2],97.7%
same,"viability, T/C",[3],147%
same,"viability, T/C",[4],120%
same,"viability, T/C",[5],91.7%
same,"viability, T/C",[6],64.7%
same,"viability, T/C",[7],122%
same,"viability, T/C",[8],108%
same,"viability, T/C",[9],94.4%
same,"viability, T/C",[10],118%
same,"viability, T/C",[11],99.1%
same,"viability, T/C",[12],89.9%
same,"viability, T/C",[13],113%
same,"viability, T/C",[14],109%
same,"viability, T/C",[15],134%
same,"viability, T/C",[16],96.3%
same,"viability, T/C",[17],98.7%
same,"viability, T/C",[18],81.7%
same,"viability, T/C",[19],114%
same,"viability, T/C",[20],90.5%
same,"viability, T/C",[21],93.1%
same,"viability, T/C",[22],109%
same,"viability, T/C",[23],110%
same,"viability, T/C",[24],67.8%
same,"viability, T/C",[25],118%
same,"viability, T/C",[26],120%
same,"viability, T/C",[27],78.4%
same,"viability, T/C",[28],91.5%
same,"viability, T/C",[29],105%
same,"viability, T/C",[30],76.4%
same,"viability, T/C",[31],88.5%
same,"viability, T/C",[32],91.8%
same,"viability, T/C",[33],87.2%
same,"viability, T/C",[34],102%
same,"viability, T/C",[35],96.7%
same,"viability, T/C",[36],75.5%
CC[C@@]1(O)C(=O)OCc2c1cc1n(c2=O)Cc2cc3c(CN(C)C)c(O)ccc3nc2-1 + COC1C(OC(N)=O)C(O)C(Oc2ccc3c(O)c(NC(=O)c4ccc(O)c(CC=C(C)C)c4)c(=O)oc3c2C)OC1(C)C,IC50,second compound 0.0316 µM,> 100 nM
same,IC50,second compound 0.1 µM,> 100 nM
same,IC50,second compound 0.316 µM,> 100 nM
same,IC50,second compound 1 µM,> 100 nM
same,IC50,second compound 3.16 µM,> 100 nM
same,IC50,second compound 10 µM,> 100 nM
same,"viability, T/C","second compound 0.0316 µM, first compound 0.000316 µM",120%
same,"viability, T/C","second compound 0.0316 µM, first compound 0.001 µM",114%
same,"viability, T/C",[1],119%
same,"viability, T/C",[2],99.6%
same,"viability, T/C",[3],112%
same,"viability, T/C",[4],72%
same,"viability, T/C","second compound 0.1 µM, first compound 0.000316 µM",130%
same,"viability, T/C","second compound 0.1 µM, first compound 0.001 µM",106%
same,"viability, T/C",[7],116%
same,"viability, T/C",[8],115%
same,"viability, T/C",[9],106%
same,"viability, T/C",[10],64.6%
same,"viability, T/C","second compound 0.316 µM, first compound 0.000316 µM",106%
same,"viability, T/C","second compound 0.316 µM, first compound 0.001 µM",105%
same,"viability, T/C",[13],85.3%
same,"viability, T/C",[14],100%
same,"viability, T/C",[15],110%
same,"viability, T/C",[16],69.3%
same,"viability, T/C","second compound 1 µM, first compound 0.000316 µM",101%
same,"viability, T/C","second compound 1 µM, first compound 0.001 µM",112%
same,"viability, T/C",[19],131%
same,"viability, T/C",[20],91.2%
same,"viability, T/C",[21],91.8%
same,"viability, T/C",[22],70.5%
same,"viability, T/C","second compound 3.16 µM, first compound 0.000316 µM",102%
same,"viability, T/C","second compound 3.16 µM, first compound 0.001 µM",105%
same,"viability, T/C",[25],97.5%
same,"viability, T/C",[26],123%
same,"viability, T/C",[27],111%
same,"viability, T/C",[28],58.5%
same,"viability, T/C","second compound 10 µM, first compound 0.000316 µM",112%
same,"viability, T/C","second compound 10 µM, first compound 0.001 µM",110%
same,"viability, T/C",[31],111%
same,"viability, T/C",[32],80.7%
same,"viability, T/C",[33],102%
same,"viability, T/C",[34],70.3%
CCc1c2c(nc3ccc(O)cc13)-c1cc3c(c(=O)n1C2)COC(=O)[C@]3(O)CC + COC1C(OC(N)=O)C(O)C(Oc2ccc3c(O)c(NC(=O)c4ccc(O)c(CC=C(C)C)c4)c(=O)oc3c2C)OC1(C)C,IC50,second compound 0.0316 µM,92.1 nM
same,IC50,second compound 0.1 µM,115 nM
same,IC50,second compound 0.316 µM,114 nM
same,IC50,second compound 1 µM,78.9 nM
same,IC50,second compound 3.16 µM,41.2 nM
same,IC50,second compound 10 µM,52.1 nM
same,"viability, T/C",[1],111%
same,"viability, T/C",[2],71.8%
same,"viability, T/C",[3],59.8%
same,"viability, T/C",[4],54%
same,"viability, T/C",[5],30.7%
same,"viability, T/C",[6],19.4%
same,"viability, T/C",[7],108%
same,"viability, T/C",[8],90.1%
same,"viability, T/C",[9],64.6%
same,"viability, T/C",[10],51.8%
same,"viability, T/C",[11],37.6%
same,"viability, T/C",[12],19.2%
same,"viability, T/C",[13],124%
same,"viability, T/C",[14],81.2%
same,"viability, T/C",[15],60.7%
same,"viability, T/C",[16],51%
same,"viability, T/C",[17],37.7%
same,"viability, T/C",[18],18.6%
same,"viability, T/C",[19],116%
same,"viability, T/C",[20],93.8%
same,"viability, T/C",[21],49.3%
same,"viability, T/C",[22],59.1%
same,"viability, T/C",[23],30.9%
same,"viability, T/C",[24],21.6%
same,"viability, T/C",[25],115%
same,"viability, T/C",[26],75.6%
same,"viability, T/C",[27],46.3%
same,"viability, T/C",[28],47.8%
same,"viability, T/C",[29],38.6%
same,"viability, T/C",[30],25%
same,"viability, T/C",[31],102%
same,"viability, T/C",[32],72.6%
same,"viability, T/C",[33],56%
same,"viability, T/C",[34],39.2%
same,"viability, T/C",[35],41.9%
same,"viability, T/C",[36],16.6%
